Assay results from ChEMBL document CHEMBL4387789, “Linear Peptides Containing d-Leucine with Neuroprotective Activities from the Leech Whitmania pigra Whitman” (J Nat Prod, 2019).

Legend:
[1] = Stability in 50% diluted pooled rat serum assessed compound degradation at 1.5 mg measured within 2 hrs by HPLC analysis; format: ADME, cell-free
N2a [2] = experiment: Neuroprotective activity against oxygen-glucose deprivation/reperfusion injury in mouse Neuro2a cells assessed as cell viability at 6.25 uM added 4 hrs prior to oxygen-glucose deprivation induction by MTT assay (Rvb 61 +/- 5%); format: functional; conditions: read-out: Activity
[3] = Stability in 50% diluted pooled rat serum assessed parent compound remaining at 1.5 mg measured after 24 hrs by HPLC analysis; format: ADME, cell-free; conditions: read-out: Stability
N2a [4] = experiment: Neuroprotective activity against oxygen-glucose deprivation/reperfusion injury in mouse Neuro2a cells assessed as cell viability at 50 uM added 4 hrs prior to oxygen-glucose deprivation induction by MTT assay (Rvb 61 +/- 5%); format: functional; conditions: read-out: Activity

Row | Structure (SMILES) | Stability [1] | remaining at 24 h [3] | viability at 6.25 µM (N2a [2]) | viability at 50 µM (N2a [4])
1 | CC(C)C[C@H](NC(=O)[C@@H](NC(=O)CNC(=O)[C@H](CO)NC(=O)[C@H](CC(C)C)NC(=O)[C@@H](N)CC(C)C)C(C)C)C(=O)NCC(=O)O | Stable | – | – | –
2 | CC(C)C[C@H](N)C(=O)N[C@H](CC(C)C)C(=O)N[C@@H](CO)C(=O)NCC(=O)N[C@H](C(=O)N[C@H](CC(C)C)C(=O)NCC(=O)O)C(C)C | – | 65% | 79% | –
3 | CC1=NN(c2ccccc2)C(=O)C1 [EDARAVONE] | – | – | – | 90%
4 | CC(C)C[C@H](N)C(=O)N[C@H](CC(C)C)C(=O)N[C@@H](CO)C(=O)NCC(=O)N[C@H](C(=O)N[C@H](CC(C)C)C(=O)NCC(=O)NCC(=O)O)C(C)C | – | 65% | – | 82%
5 | CC(C)C[C@H](NC(=O)[C@@H](NC(=O)CNC(=O)[C@H](CO)NC(=O)[C@H](CC(C)C)NC(=O)[C@@H](N)CC(C)C)C(C)C)C(=O)NCC(=O)NCC(=O)O | Stable | – | – | –

Further lines, with some results ahead:

Row | Stability [1] | remaining at 24 h [3] | Structure (SMILES) | viability at 6.25 µM (N2a [2]) | viability at 50 µM (N2a [4])
6 | Stable | – | CC(C)C[C@H](NC(=O)[C@@H](N)CC(C)C)C(=O)N[C@@H](CO)C(=O)NCC(=O)N[C@H](C(=O)O)C(C)C | – | –
7 | – | 65% | CC(C)C[C@H](N)C(=O)N[C@H](CC(C)C)C(=O)N[C@@H](CO)C(=O)NCC(=O)N[C@H](C(=O)O)C(C)C | – | 86%
